Measurements: patent US20040176431A1, “Antiproliferative 2-(sulfo-phenyl)-aminothiazole derivatives and pharmaceutical compositions, and methods for their use” (Pfizer, Inc., priority 2003, published 2004)

Molecular target: T1, CDK4/cyclin D3 (Homo sapiens, UniProt P11802)
T1 construct: made in house; host or cells: insect cells (baculovirus co-infection)
Test: Inhibition of CDK4/Cyclin D retinoblastoma kinase activity
Assay type: biochemical
Conditions: for inhibition at 0.1 µM: test compound at 0.1 μM, read-out: % Inhib CDK4/D @ 0.1 μM; for inhibition at 1 µM: test compound at 1 μM (head line shifted: 'mM' printed beside 'Structure'), read-out: % Inhib CDK4/D @ 1 μM; for inhibition at 0.03 µM: test compound at 0.03 (unit cell empty, head line shifted; μM), read-out: % Inhib CDK4/D @ 0.03
Protocol: Cyclin-dependent kinase activity was measured by quantifying the enzyme-catalyzed, time-dependent incorporation of radioactive phosphate from [^32P]ATP or [^33P]ATP into a protein substrate. Unless noted otherwise, assays were performed in 96-well plates in a total volume of 50 μL, in the presence of 10 mM HEPES (N-[2-hydroxyethyl]piperazine-N′-[2-ethanesulfonic acid]) (pH 7.4), 10 mM MgCl2, 25 μM adenosine triphosphate (ATP), 1 mg/mL ovalbumin, 5 μg/mL leupeptin, 1 mM dithiothreitol, 10 mM β-glycerophosphate, 0.1 mM sodium vanadate, 1 mM sodium fluoride, 2.5 mM ethylene glycol-bis(β-aminoethyl ether)-N,N,N′N′-tetraacetic acid (EGTA), 2% (v/v) dimethylsulfoxide, and 0.03-0.4 μCi [^32/33P]ATP per reaction. Reactions were initiated with enzyme, incubated at 30° C., and terminated after 20 minutes by the addition of ethylenediaminetetraacetic acid (EDTA) to 250 mM. The phosphorylated substrate was then captured on a nitrocellulose or phosphocellulose membrane using a 96-well filtration manifold, and unincorporated radioactivity was removed by repeated washing with 0.85% phosphoric acid. Radioactivity was quantified by exposing the dried membranes to a phosphorimager.
Inhibition was measured relative to control wells that contained all reaction components including 2% (v/v) DMSO but no compound, after subtraction of background radioactivity measured in the absence of enzyme. Apparent Ki values of discrete compounds were measured by assaying enzyme activity in the presence of different inhibitor compound concentrations and subtracting the background radioactivity measured in the absence of enzyme. The kinetic parameters (kcat, Km for ATP) were measured for each enzyme under the usual assay conditions by determining the dependence of initial rates on ATP concentration. Inhibition data were fit to an equation for competitive inhibition using Kaleidagraph (Synergy Software), or were fit to an equation for competitive tight-binding inhibition using the software KineTic (BioKin, Ltd.).
A complex of human CDK4 and genetically truncated (1-264) cyclin D3 was purified using traditional biochemical chromatographic techniques from insect cells that had been co-infected with the corresponding baculovirus expression vectors (see e.g., Meijer and Kim, “Chemical Inhibitors of Cyclin-Dependent Kinases,” Methods in Enzymol., 283, 113-128 (1997)). The enzyme complex (5 nM) was assayed with 0.3-0.5 μg of purified recombinant retinoblastoma protein fragment (Rb) as a substrate. The engineered Rb fragment (residues 386-928 of the native retinoblastoma protein; 62.3 kDa) contains the majority of the phosphorylation sites found in the native 106-kDa protein, as well as a tag of six histidine residues for ease of purification. Phosphorylated Rb substrate was captured by microfiltration on a nitrocellulose membrane and quantified using a phosphorimager as described above. For measurement of tight-binding inhibitors, the assay duration was extended to 60 minutes, during which the time-dependence of product formation was linear and initial rate conditions were met.

T1 sequence (P11802 whole entry): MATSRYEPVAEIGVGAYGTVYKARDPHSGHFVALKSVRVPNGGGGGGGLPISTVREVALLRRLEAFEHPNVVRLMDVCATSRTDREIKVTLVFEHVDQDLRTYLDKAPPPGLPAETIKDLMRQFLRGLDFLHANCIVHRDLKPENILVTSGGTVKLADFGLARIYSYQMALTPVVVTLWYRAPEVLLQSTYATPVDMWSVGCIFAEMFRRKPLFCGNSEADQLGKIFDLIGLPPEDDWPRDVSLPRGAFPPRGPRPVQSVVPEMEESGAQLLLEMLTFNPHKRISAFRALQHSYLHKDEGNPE
T1 sequence (P30281 1-264 partner limits assumed): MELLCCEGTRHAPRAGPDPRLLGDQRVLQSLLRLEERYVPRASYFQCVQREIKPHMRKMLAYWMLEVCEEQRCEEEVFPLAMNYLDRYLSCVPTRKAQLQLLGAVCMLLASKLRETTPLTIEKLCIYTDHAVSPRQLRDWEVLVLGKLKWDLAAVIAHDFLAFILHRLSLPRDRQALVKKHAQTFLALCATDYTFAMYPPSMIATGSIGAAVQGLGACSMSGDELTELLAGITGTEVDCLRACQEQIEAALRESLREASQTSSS

| Structure (SMILES) | inhibition at 0.1 µM [%] | inhibition at 1 µM [%] | inhibition at 0.03 µM [%] |
| --- | --- | --- | --- |
| Nc1nc(Nc2cccc(SCCCO)c2)sc1C(=O)c1c(Cl)cccc1Cl [DD(45)] | 54 | 79.6 | 32 |
| Nc1nc(Nc2cccc(SCc3ncon3)c2)sc1C(=O)c1c(Cl)cccc1Cl [DD(48)] | 36 | 52.2 | 26 |
| CN(C)CCCSc1cccc(Nc2nc(N)c(C(=O)c3c(Cl)cccc3Cl)s2)c1 [DD(50)] | 10 | 80.3 | 24 |
| Nc1nc(Nc2cccc(SCCN3CCCCC3)c2)sc1C(=O)c1c(Cl)cccc1Cl [DD(51)] | 30 | 75.6 | 4.1 |
| Nc1nc(Nc2cccc(SCC(=O)Nc3ccccc3)c2)sc1C(=O)c1c(Cl)cccc1Cl [DD(55)] | 24 | 63.4 | 17 |
| Nc1nc(Nc2cccc(SCC3CC3)c2)sc1C(=O)c1c(Cl)cccc1Cl [DD(56)] | 17 | 55.4 | 2.9 |
| COc1cccc(CSc2cccc(Nc3nc(N)c(C(=O)c4c(Cl)cccc4Cl)s3)c2)c1 [DD(57)] | -9 | 24.6 | -14 |
| NC(=O)CSc1cccc(Nc2nc(N)c(C(=O)c3c(Cl)cccc3Cl)s2)c1 [DD(61)] | 57 | 81.5 | 20 |
| CCOC(=O)CCSc1cccc(Nc2nc(N)c(C(=O)c3c(Cl)cccc3Cl)s2)c1 [DD(62)] | 27 | 46.4 | 6.4 |
| CCCSc1cccc(Nc2nc(N)c(C(=O)c3c(Cl)cccc3Cl)s2)c1 [DD(65)] | 7 | 51.1 | 6.5 |
| NC(=O)CCSc1cccc(Nc2nc(N)c(C(=O)c3c(Cl)cccc3Cl)s2)c1 [DD(68)] | 52 | 77.4 | 25 |
| Nc1nc(Nc2cccc(SCCO)c2)sc1C(=O)c1c(Cl)cccc1Cl [DD(69)] | 41 | 78.4 | 16 |
| CN(C)CCSc1cccc(Nc2nc(N)c(C(=O)c3c(Cl)cccc3Cl)s2)c1 [DD(72)] | 25 | 69 | -1.1 |
| CCOCCSc1cccc(Nc2nc(N)c(C(=O)c3c(Cl)cccc3Cl)s2)c1 [DD(73)] | 31 | 73.7 | 11 |
| CC(C)OC(=O)CCSc1cccc(Nc2nc(N)c(C(=O)c3c(Cl)cccc3Cl)s2)c1 [DD(78)] | 22 | 36.2 | 13 |
| Cc1noc(C)c1C[S+]([O-])c1ccc(Nc2nc(N)c(C(=O)c3c(Cl)cccc3Cl)s2)cc1 (stereo not drawn) [DD(82)] | -4 | 72.3 | -3.3 |
| CC(CN(C)C)C[S+]([O-])c1ccc(Nc2nc(N)c(C(=O)c3c(Cl)cccc3Cl)s2)cc1 (stereo not drawn) [DD(83)] | 31 | 43 | -17 |
| C=CCC[S+]([O-])c1ccc(Nc2nc(N)c(C(=O)c3c(Cl)cccc3Cl)s2)cc1 (stereo not drawn) [DD(86)] | 36 | 62.5 | -9.8 |

Results, then the compound that gave them:

| inhibition at 0.1 µM [%] | inhibition at 1 µM [%] | inhibition at 0.03 µM [%] | Structure (SMILES) |
| --- | --- | --- | --- |
| 31 | 46 | 23 | COC(=O)/C=C/CSc1cccc(Nc2nc(N)c(C(=O)c3c(Cl)cccc3Cl)s2)c1 [DD(44)] |
| 39 | 50.7 | 18 | C=CCCSc1cccc(Nc2nc(N)c(C(=O)c3c(Cl)cccc3Cl)s2)c1 [DD(46)] |
| 7.3 | 62.9 | 20 | Nc1nc(Nc2cccc(SCCN3CCCC3)c2)sc1C(=O)c1c(Cl)cccc1Cl [DD(47)] |
| 19 | 54.2 | 12 | Nc1nc(Nc2cccc(SCC3CNC(=O)O3)c2)sc1C(=O)c1c(Cl)cccc1Cl (stereo not drawn) [DD(49)] |
| 34 | 74.9 | 15 | Nc1nc(Nc2cccc(SCC3CO3)c2)sc1C(=O)c1c(Cl)cccc1Cl (stereo not drawn) [DD(52)] |
| 14 | 31.5 | 5.6 | CC(C)CCSc1cccc(Nc2nc(N)c(C(=O)c3c(Cl)cccc3Cl)s2)c1 [DD(53)] |
| 34 | 75.2 | 20 | COCCSc1cccc(Nc2nc(N)c(C(=O)c3c(Cl)cccc3Cl)s2)c1 [DD(54)] |
| 23 | 72.7 | 11 | Nc1nc(Nc2cccc(SCC3CCCO3)c2)sc1C(=O)c1c(Cl)cccc1Cl (stereo not drawn) [DD(58)] |
| 37 | 57.4 | 20 | CN1CCCC1CCSc1cccc(Nc2nc(N)c(C(=O)c3c(Cl)cccc3Cl)s2)c1 (stereo not drawn) [DD(59)] |
| 39 | 80.1 | 22 | CC1(CSc2cccc(Nc3nc(N)c(C(=O)c4c(Cl)cccc4Cl)s3)c2)CO1 (stereo not drawn) [DD(60)] |
| 29 | 46.6 | -3.8 | CC(C)OC(=O)CSc1cccc(Nc2nc(N)c(C(=O)c3c(Cl)cccc3Cl)s2)c1 [DD(63)] |
| 27 | 22.1 | -11 | CC(C)=CCSc1cccc(Nc2nc(N)c(C(=O)c3c(Cl)cccc3Cl)s2)c1 [DD(64)] |
| 23 | 77.1 | 18 | COC(=O)CSc1cccc(Nc2nc(N)c(C(=O)c3c(Cl)cccc3Cl)s2)c1 [DD(66)] |
| 14 | 49.1 | 4.3 | CN1CCCC(CSc2cccc(Nc3nc(N)c(C(=O)c4c(Cl)cccc4Cl)s3)c2)C1 (stereo not drawn) [DD(67)] |
| 16 | 5.3 | 93 | CC(C)CCCSc1cccc(Nc2nc(N)c(C(=O)c3c(Cl)cccc3Cl)s2)c1 [DD(70)] |
| 6.9 | 36 | 77 | CC(C)CCOC(=O)CSc1cccc(Nc2nc(N)c(C(=O)c3c(Cl)cccc3Cl)s2)c1 [DD(71)] |
| 59 | 85.7 | 28 | Nc1nc(Nc2cccc(SCC(O)CO)c2)sc1C(=O)c1c(Cl)cccc1Cl (stereo not drawn) [DD(74)] |
| 29 | 66.5 | 18 | Nc1nc(Nc2cccc(SCc3ccncc3)c2)sc1C(=O)c1c(Cl)cccc1Cl [DD(75)] |
| 9.6 | 29.5 | 19 | CCC(CC)CSc1cccc(Nc2nc(N)c(C(=O)c3c(Cl)cccc3Cl)s2)c1 [DD(76)] |
| 30 | 71.9 | 23 | CC(=O)OCCSc1cccc(Nc2nc(N)c(C(=O)c3c(Cl)cccc3Cl)s2)c1 [DD(77)] |
| 4.3 | 62.3 | 9.1 | Nc1nc(Nc2cccc(SCCN3CCOCC3)c2)sc1C(=O)c1c(Cl)cccc1Cl [DD(79)] |
| 1.5 | 56 | 1.2 | CC(C)(CO)CSc1cccc(Nc2nc(N)c(C(=O)c3c(Cl)cccc3Cl)s2)c1 [DD(80)] |
| 21 | 57.4 | -21 | CCN(CC)C(=O)C[S+]([O-])c1ccc(Nc2nc(N)c(C(=O)c3c(Cl)cccc3Cl)s2)cc1 (stereo not drawn) [DD(81)] |
| 26 | 45.7 | -5.6 | COC(=O)/C=C/C[S+]([O-])c1ccc(Nc2nc(N)c(C(=O)c3c(Cl)cccc3Cl)s2)cc1 (stereo not drawn) [DD(84)] |
| 49 | 76.8 | 3.7 | Nc1nc(Nc2ccc([S+]([O-])CCCO)cc2)sc1C(=O)c1c(Cl)cccc1Cl (stereo not drawn) [DD(85)] |
